Active and inactive are the calls of the source. The calls are words filed in the database; no cut-off is given here.
Target: Protein cereblon/Programmed cell death 1 ligand 1 (Mus musculus) (UniProt Q9EP73+Q8C7D2)
Experiment: PROTAC activity at CRBN/PD-L1 in mouse 4T1 cells assessed as protein degradation at 1.25 to 20 uM incubated for 24 hrs by Western blot analysis
Format: cell-based
Conditions: dose 1.25-20 µM

Protein cereblon/Programmed cell death 1 ligand 1 (Mus musculus), sequence (Q8C7D2 whole entry partner): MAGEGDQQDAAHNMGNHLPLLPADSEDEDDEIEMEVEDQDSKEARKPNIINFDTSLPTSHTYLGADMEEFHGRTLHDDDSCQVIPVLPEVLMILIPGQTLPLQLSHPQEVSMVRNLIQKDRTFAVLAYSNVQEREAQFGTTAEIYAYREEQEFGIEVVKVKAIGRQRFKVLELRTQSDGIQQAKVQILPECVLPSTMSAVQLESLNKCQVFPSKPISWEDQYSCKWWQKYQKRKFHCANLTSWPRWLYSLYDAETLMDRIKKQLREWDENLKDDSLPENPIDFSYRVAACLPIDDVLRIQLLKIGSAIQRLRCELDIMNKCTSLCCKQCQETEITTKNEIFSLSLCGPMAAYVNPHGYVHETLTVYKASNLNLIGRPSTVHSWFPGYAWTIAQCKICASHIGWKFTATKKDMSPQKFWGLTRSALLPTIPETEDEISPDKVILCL
Protein cereblon/Programmed cell death 1 ligand 1 (Mus musculus), sequence (Q9EP73 19-290 limits assumed): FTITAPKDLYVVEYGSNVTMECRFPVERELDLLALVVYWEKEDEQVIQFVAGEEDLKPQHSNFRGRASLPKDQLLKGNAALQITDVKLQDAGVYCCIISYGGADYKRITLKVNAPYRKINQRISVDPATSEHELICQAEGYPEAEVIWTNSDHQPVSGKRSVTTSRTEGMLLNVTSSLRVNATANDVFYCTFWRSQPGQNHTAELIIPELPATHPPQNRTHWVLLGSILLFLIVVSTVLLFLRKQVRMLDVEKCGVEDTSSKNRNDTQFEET

COc1nc(OCc2cccc(-c3ccccc3)c2C)ccc1CNCCNC(=O)CCCCCCNC(=O)COc1ccc(C2CCC(=O)NC2=O)cc1 (stereo unspecified)
Activity: Active

— ChEMBL document CHEMBL5500406, “Discovery of Novel Proteolysis-Targeting Chimera Molecules as Degraders of Programmed Cell Death-Ligand 1 for Breast Cancer Therapy” (J Med Chem, 2024)
